Assay results published in ChEMBL document CHEMBL4145580, “Sesquiterpenoids from Chloranthus anhuiensis with Neuroprotective Effects in PC12 Cells” (J Nat Prod, 2018).
pEC50: −log10 of the molar value. Active and inactive are the calls of the source. The rule behind the calls is not given here.

Tested on: PC-12
Test: Neuroprotective activity against glutamate-induced apoptotic cell death in rat PC12 cells assessed as decrease in caspase-3 level at 10 to 40 uM measured after 24 hrs
Type: functional, cell-based

Structure (SMILES)	Activity
CC(=O)OC[C@@H]1[C@H]2C[C@H]2[C@]2(C)C=C3OC(=O)C(CO)=C3C[C@@H]12	Active

Target: RAC-alpha serine/threonine-protein kinase (Rattus norvegicus) (UniProt P47196)
Sequence (P47196 whole entry): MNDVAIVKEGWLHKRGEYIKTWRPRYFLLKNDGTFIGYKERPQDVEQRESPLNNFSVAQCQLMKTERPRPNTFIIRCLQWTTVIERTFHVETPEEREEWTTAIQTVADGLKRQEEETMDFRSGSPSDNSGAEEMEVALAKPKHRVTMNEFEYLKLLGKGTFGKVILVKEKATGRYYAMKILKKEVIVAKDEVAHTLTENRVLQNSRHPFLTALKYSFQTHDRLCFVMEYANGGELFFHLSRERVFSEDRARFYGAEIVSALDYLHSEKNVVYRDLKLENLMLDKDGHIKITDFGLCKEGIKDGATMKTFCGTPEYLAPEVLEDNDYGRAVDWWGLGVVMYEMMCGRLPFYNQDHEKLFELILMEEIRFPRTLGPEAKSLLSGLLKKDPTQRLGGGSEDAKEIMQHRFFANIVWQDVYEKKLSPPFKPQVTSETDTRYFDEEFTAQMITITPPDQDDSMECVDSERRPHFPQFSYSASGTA
Test: Increase in Akt phosphorylation in glutamate-induced rat PC12 cells at 10 to 40 uM measured after 24 hrs by Western blot analysis

Structure (SMILES)	Activity
CC(=O)OC[C@@H]1[C@H]2C[C@H]2[C@]2(C)C=C3OC(=O)C(CO)=C3C[C@@H]12	Active

Tested on: PC-12
Test: Neuroprotective activity against glutamate-induced neuronal cell death in rat PC12 cells assessed as increase in cell viability pretreated for 2 hrs followed by glutamate challenge measured after 24 hrs by MTT assay
Type: functional, cell-based

Structure (SMILES)	Activity	pEC50
Cc1coc2c1C(=O)[C@H]1[C@](C)(C2=O)[C@@H](O)CC[C@@]1(C)O	inactive	
CC1=C2C(=O)[C@@](O)(C(C)C)CC[C@@]2(C)CCC1=O		3.88
C=C1CCC[C@]2(C)C=C3OC(=O)C(C)=C3C[C@@H]12	inactive	
C=C1CCC[C@]2(C)C=C3OC(=O)C(C)=C3[C@H](O)[C@@H]12	inactive	
CC(=O)CCc1c(C)ccc2c1C(=O)OC2(C)C		4.03
C=C1CCC[C@]2(C)C[C@]3(O)OC(=O)C(C)=C3C[C@@H]12 [ATRACTYLENOLIDE III]	inactive	4.44
Cc1coc2c1C(=O)[C@H]1O[C@]1(C)CC[C@@H](O)[C@](C)(O)C2		4.15
CC1=C2C[C@@H]3[C@](C)(CCC[C@]3(C)O)C[C@]2(O)OC1=O	inactive	
CC1=C2C(=O)c3c(C)coc3C(=O)[C@@]2(C)[C@@H](O)CC1	inactive	
C=C(C)[C@@H]1CC[C@]2(C)C(=C(C)C(=O)C[C@H]2O)C1	inactive	
C=C1[C@H](O)CC[C@@]2(C)C[C@@]3(O)OC(=O)C(C)=C3C[C@H]12	inactive	
CC1=C2C(=O)c3c(C)coc3[C@@H](O)[C@]2(C)[C@@H](O)CC1	inactive	
CC1=C2C[C@@]3(C)[C@H](C[C@H]2OC1=O)C(=O)CC[C@@H]3C	inactive	
CC1=C2C(=O)c3c(C)coc3C[C@@]2(C)C=CC1=O		3.98
CC1=C(C[C@@H]2OC(=O)[C@@H](C)CC/C=C\2C)C(=O)OC1	inactive	
CC1=C2C(=O)[C@@](O)(C(C)C)CC[C@]2(C)CCC1	inactive	
C=C1CC[C@@H]2C(=C)C[C@@]3(O)OC(=O)C(C)=C3[C@@]2(O)C1		4.82
C=C[C@]1(C)C[C@@H]2OC(=O)C(C)=C2C[C@H]1C(=C)C [ISOGERMAFURENOLIDE]		4.61
CC1=C2C[C@@]3(C)[C@H](C[C@@]2(O)OC1=O)C(=O)CC[C@@H]3C	inactive	
CC1=C2C[C@@H]3[C@@](C)(C=C2OC1=O)CCC[C@@]3(C)O	inactive	
C=C1CCC[C@]2(C)C(=O)c3occ(C)c3C[C@@H]12		3.92
Cc1coc2c1C(=O)[C@H]1[C@@H](C)CC[C@H](O)[C@]1(C)C2=O		4.29
C=C1[C@H]2C[C@H]2[C@]2(COC(C)=O)C[C@@H]3OC(=O)C(C)=C3C[C@@H]12		4.05
CC(=O)OC[C@@H]1[C@H]2C[C@H]2[C@]2(C)C=C3OC(=O)C(CO)=C3C[C@@H]12		5.48
Cc1coc2c1C(=O)[C@@H]1[C@@](C)(C2)[C@H](O)CC[C@@]1(C)O	inactive	
Cc1coc2c1C(=O)[C@H]1[C@@](C)(O)CCC(=O)[C@]1(C)C2	inactive	
COCCOC(=O)C1=C(C)NC(C)=C(C(=O)OC(C)C)C1c1cccc([N+](=O)[O-])c1 (centres undefined) [NIMODIPINE]		4.01
Cc1coc2c1C(=O)[C@@H]1[C@@](C)(C2)C(=O)CC[C@@]1(C)O		3.97
CC(=O)OC[C@@H]1[C@H]2C[C@H]2[C@]2(C)C=C3OC(=O)C(C)=C3C[C@@H]12	inactive	
Cc1coc2c1C[C@@H]1[C@](C)(CCC[C@@]1(C)O)C2	inactive	

Tested on: PC-12
Test: Neuroprotective activity against glutamate-induced apoptotic cell death in rat PC12 cells assessed as apoptotic neurons at 10 to 40 uM pretreated with compound followed by glutamate challenge measured after 24 hrs by Hoechst 33258 staining based assay (reference value: 65.5%)
Type: functional

Structure (SMILES)	Activity
CC(=O)OC[C@@H]1[C@H]2C[C@H]2[C@]2(C)C=C3OC(=O)C(CO)=C3C[C@@H]12	7.2 - 23.7%
